Source: patent US11447484B2, “Cyclic compound having dopamine D3 receptor antagonistic effect” (Shionogi & Co., Ltd., priority 2018, dated 2022)

Experiments:
[1] = biological target: human recombinant D2 receptor (Homo sapiens (Human), UniProt P14416); experiment: Test of binding inhibition for dopamine D2 receptor; conditions: Jump-In HEK cell membranes, 1.2 nM [3H]-Methylspiperone, 120 min at 25° C.; read-out: hD2_Ki
Procedure: Test Example 2: Test of Binding Inhibition for Dopamine D2 Receptor
(§1) (Experimental Conditions)
Cell membranes: Jump-In HEK cell membranes expressing human recombinant D2 receptor (2 μg/well)
(§2) Buffer solution: 50 mM Tris-HCl (35409-45, Nacalai Tesque) (pH 7.4) containing 120 mM NaCl (31320-05, Nacalai Tesque), 1 mM MgCl2.6H2O (20909-55, Nacalai Tesque), 5 mM KCl (28514-75, Nacalai Tesque) and 2 mM CaCl2 (067-31, NAKARAI CHEMICALS, LTD.)
Radioligand: (final concentration) 1.2 nM [^3H]-Methylspiperone ([^3H—N-methyl-]-Methylspiperone, NET-856, 83.8 Ci/mmol, PerkinElmer)
Non-specific ligand: (final concentration) 10 μM Butaclamol [(+)-Butaclamol Hydrochloride, D033; Sigma]
(§3) SPA beads solution: SPA beads [WGA PVT SPA Scintillation Beads, RPNQ0001 (500 mg), RPNQ0060 (2 g), PerkinElmer] (0.2 mg/well)
(§4) Incubation time and temperature: 120 min at 25° C.
(§5) Butaclamol or the compounds of the present invention were weighed and DMSO was added to make a 10 mM solution. This solution was diluted to each concentration.
[^3H]-Methylspiperone was weighed and the buffer solution was added to make a 3.6 nM solution.
(§6) SPA beads were weighed and stirred in water to make a 50 mg/mL solution. Using this solution, a mixture with the cell membranes was prepared.
(§7) 225 nL of the solutions of the non-specific ligand or the compounds of the present invention at each concentration (in case of vehicle, final concentration 0.3% DMSO) were added in each well of a 384-well white/clear bottom microplate (3706, Corning). Jump-In HEK Cell membranes (final reaction amount: 2 μg protein/well), the SPA bead solution (final reaction amount: 0.2 mg/well) and the buffer solution were mixed and the mixed solution was left still for 1 hour or more at 4° C. Then, 50 μL of the mixture was added to each well of the plate. In addition, 25 μL of 3.6 nM [^3H]-Methylspiperone (final concentration: 1.2 nM) was added to each well. The plate was sealed by putting TopSeal-A 96/384 well (6050185, PerkinElmer) on the top of the plate, mixed using stirring deaerator (Well Tornado, FK-62, Sakaki-elc.) and incubated for 120 min at 25° C. After incubation, the radioactivity of [^3H]-Methylspiperone which was bonded to D2 receptor was determined by liquid scintillation counter (1450 Microbeta, PerkinElmer) in each well. Non-specific binding was calculated based on the radioactivity of [^3H]-Methylspiperone in the presence of 10 μM non-labeled Butaclamol. The total binding was calculated using the radioactivity of [^3H]-Methylspiperone in the absence of the compounds of the present invention (vehicle). The Ki values were calculated from dose-response curves.
(§8) Binding activities of the compounds of the present invention were calculated from the following Binding Inhibition Rate (%): Inhibition Rate(%)=[1−(c−a)/(b−a)]×100 • a: Average cpm of non-specific binding • b: Average cpm of total binding • c: Cpm in the presence of each test compound

[2] = biological target: human recombinant D3 receptor (Homo sapiens (Human), UniProt P35462); experiment: Test of binding inhibition for dopamine D3 receptor; conditions: Jump-In HEK cell membranes, 2 nM [3H]-Methylspiperone, 120 min at 25° C.; read-out: hD3_Ki
Chain of human recombinant D3 receptor (P35462 whole entry): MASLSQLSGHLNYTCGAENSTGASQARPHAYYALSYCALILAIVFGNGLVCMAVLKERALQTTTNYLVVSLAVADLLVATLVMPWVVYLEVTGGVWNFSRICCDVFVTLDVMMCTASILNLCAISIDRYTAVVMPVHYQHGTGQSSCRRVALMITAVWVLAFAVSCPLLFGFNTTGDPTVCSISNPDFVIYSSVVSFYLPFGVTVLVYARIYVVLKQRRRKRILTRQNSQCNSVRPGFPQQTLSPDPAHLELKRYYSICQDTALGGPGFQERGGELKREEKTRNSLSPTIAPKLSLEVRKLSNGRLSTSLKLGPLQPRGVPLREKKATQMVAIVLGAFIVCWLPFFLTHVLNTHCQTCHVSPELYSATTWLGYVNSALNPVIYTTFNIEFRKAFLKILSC
Procedure: Test Example 1: Test of Binding Inhibition for Dopamine D3 Receptor
as §1
Cell membranes: Jump-In HEK cell membranes expressing human recombinant D3 receptor (4 μg/well)
as §2
Radioligand: (final concentration) 2 nM [^3H]-Methylspiperone ([^3H—N-methyl-]-Methylspiperone, NET-856, 83.8 Ci/mmol, PerkinElmer)
Non-specific ligand: (final concentration) 10 μM Butaclamol [(+)-Butaclamol Hydrochloride, D033, Sigma]
as §3, §4, §5
[^3H]-Methylspiperone was weighed and the buffer solution was added to make a 6 nM solution.
as §6
as §7, with “amount: 4” for “amount: 2”, “SPA beads” for “SPA bead”, “of 6” for “of 3.6”, “concentration: 2” for “concentration: 1.2”, “(6050185, PerkinElmer, Inc.)” for “(6050185, PerkinElmer)”, “to D3” for “to D2”
as §8

Chain of human recombinant D2 receptor (P14416 whole entry): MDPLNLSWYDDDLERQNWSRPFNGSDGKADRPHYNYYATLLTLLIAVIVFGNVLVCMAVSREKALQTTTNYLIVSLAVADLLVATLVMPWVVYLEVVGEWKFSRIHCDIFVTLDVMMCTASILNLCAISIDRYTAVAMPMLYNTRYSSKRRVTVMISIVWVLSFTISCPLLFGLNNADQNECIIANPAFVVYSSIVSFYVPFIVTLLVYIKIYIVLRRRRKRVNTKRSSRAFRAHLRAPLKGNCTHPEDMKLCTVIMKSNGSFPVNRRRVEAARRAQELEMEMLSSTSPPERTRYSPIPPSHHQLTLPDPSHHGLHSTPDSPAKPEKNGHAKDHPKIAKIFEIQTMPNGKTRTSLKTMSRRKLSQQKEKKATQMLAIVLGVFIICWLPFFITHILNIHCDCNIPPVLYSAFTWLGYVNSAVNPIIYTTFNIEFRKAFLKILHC

| SMILES | Ki [1] [nM] | Ki [2] [nM] |
| --- | --- | --- |
| O=C(N[C@H]1CC[C@H](CCN2CCC(c3nccn3-c3ccccn3)CC2)CC1)c1cccc2ncccc12 [Compound I-001] | > 1700 | 3.3 |
| O=C(N[C@H]1CC[C@H](CCN2CCC(c3nocc3-c3ccccc3)CC2)CC1)c1cccc2ncccc12 [Compound I-002] | 32 | 0.12 |
| O=C(N[C@H]1CC[C@H](CCN2CCC(c3nocc3-c3cccc(F)c3)CC2)CC1)c1cccc2ncccc12 [Compound I-003] | 36 | 0.093 |
| O=C(N[C@H]1CC[C@H](CCN2CCC(c3nocc3C3CC3)CC2)CC1)c1cccc2ncccc12 [Compound I-004] | 160 | 0.6 |
| O=C(N[C@H]1CC[C@H](CCN2CCC(c3conc3-c3ccccc3)CC2)CC1)c1cccc2ncccc12 [Compound I-005] | 860 | 1.2 |
| O=C(N[C@H]1CC[C@H](CCN2CCC(c3ccnn3-c3ccccc3)CC2)CC1)c1cccc2ncccc12 [Compound I-006] | 1100 | 4 |
| O=C(N[C@H]1CC[C@H](CCN2CCC(n3nccc3-c3ccccc3)CC2)CC1)c1cccc2ncccc12 [Compound I-007] | > 1800 | 2.7 |
| Cc1cc(CC(=O)N[C@H]2CC[C@H](CCN3CCC(c4nocc4C(C)(F)F)CC3)CC2)on1 [Compound I-008] | 350 | 0.69 |
| Cc1ncc(CC(=O)N[C@H]2CC[C@H](CCN3CCC(c4noc(C)c4C(C)(F)F)CC3)CC2)s1 [Compound I-009] | 330 | 1.9 |
| Cc1ncc(CC(=O)N[C@H]2CC[C@H](CCN3CCC(c4nocc4C(C)(F)F)CC3)CC2)s1 [Compound I-010] | 230 | 0.65 |
| Cc1ncc(CC(=O)N[C@H]2CC[C@H](CCN3CCC(c4nocc4CC4CC4)CC3)CC2)s1 [Compound I-011] | 380 | 0.63 |
| Cc1ncc(CC(=O)N[C@H]2CC[C@H](CCN3CCC(c4nscc4C(C)(F)F)CC3)CC2)s1 [Compound I-012] | 460 | 1.9 |
| Cc1ncc(CC(=O)N[C@H]2CC[C@H](CCN3CCC(c4nocc4C4CC4)CC3)CC2)s1 [Compound I-013] | 230 | 0.95 |
| Cc1ncc(CC(=O)N[C@H]2CC[C@H](CCN3CCN(c4nocc4C(C)(F)F)CC3)CC2)s1 [Compound I-014] | 88 | 0.2 |
| CCC(F)(F)c1conc1C1CCN(CC[C@H]2CC[C@H](NC(=O)Cc3nnc(C)s3)CC2)CC1 [Compound I-015] | 67 | 0.13 |
| CCC(F)(F)c1conc1C1CCN(CC[C@H]2CC[C@H](NC(=O)c3cccc4nn(C)cc34)CC2)CC1 [Compound I-016] | 33 | 0.085 |
| Cn1cc2c(C(=O)N[C@H]3CC[C@H](CCN4CCN(c5nocc5C(C)(F)F)CC4)CC3)cccc2n1 [Compound I-017] | 52 | 0.21 |
| Cn1cc2c(C(=O)N[C@H]3CC[C@H](CCN4CCC(c5nocc5C(F)(F)C5CC5)CC4)CC3)cccc2n1 [Compound I-018] | 45 | 0.22 |
| Cc1ncc(CC(=O)N[C@H]2CC[C@H](CCN3CCN(c4nocc4C(C)(F)F)C(C)C3)CC2)s1 (some centres unmarked) [Compound I-019] | 68 | 0.15 |

| SMILES | Ki [1] [nM] | Ki [2] [nM] |
| --- | --- | --- |
| CCC(F)(F)c1conc1C1(F)CCN(CC[C@H]2CC[C@H](NC(=O)Cc3cnc(C)s3)CC2)CC1 [Compound I-020] | 310 | 0.37 |
| Cn1cc2c(C(=O)N[C@H]3CC[C@H](CCN4CCC5(c6nocc6C(C)(F)F)CC5C4)CC3)cccc2n1 (some centres unmarked) [Compound I-021] | 1700 | 4.8 |
| Cn1cc2c(C(=O)N[C@H]3CC[C@H](CCN4CCC(c5nocc5C(C)(F)F)CC4)CC3)cccc2n1 [Compound I-022] | 170 | 0.11 |
| CC(=O)c1conc1C1=CCN(CC[C@H]2CC[C@H](NC(=O)c3cccc4nn(C)cc34)CC2)CC1 [Compound I-023] | 1700 | 0.69 |
| Cn1cc2c(C(=O)N[C@H]3CC[C@H](CCN4CC=C(c5nocc5C(C)(F)F)CC4)CC3)cccc2n1 [Compound I-024] | 220 | 0.082 |
| Cn1cc2c(C(=O)N[C@H]3CC[C@H](CCN4CCC5CC5(c5cc(C(C)(F)F)on5)C4)CC3)cccc2n1 (some centres unmarked) [Compound I-025] | 1200 | 2.4 |
| Cn1cc2c(C(=O)N[C@H]3CC[C@](F)(CCN4CCC(c5nocc5C(C)(F)F)CC4)CC3)cccc2n1 [Compound I-026] | 250 | 0.55 |
| Cn1cc2c(C(=O)N[C@H]3CC[C@H](CCN4C[C@@H]5C[C@]5(c5cc(C(C)(F)F)on5)C4)CC3)cccc2n1 [Compound I-027] | > 1800 | 0.3 |
| Cn1cc2c(C(=O)N[C@H]3CC[C@H](CCN4CC5CC5(c5cc(CF)on5)C4)CC3)cccc2n1 (some centres unmarked) [Compound I-028] |  | 1.9 |
| Cc1ncc(CC(=O)N[C@H]2CC[C@H](CCN3CC4CC4(c4cc(CF)on4)C3)CC2)s1 (some centres unmarked) [Compound I-029] | 1100 | 2.2 |
| Cc1cc(C23CC2CN(CC[C@H]2CC[C@H](NC(=O)c4cccc5nn(C)cc45)CC2)C3)no1 (some centres unmarked) [Compound I-030] | > 1800 | 2.9 |
| Cc1cc(C23CC2CN(CC[C@H]2CC[C@H](NC(=O)Cc4cnc(C)s4)CC2)C3)no1 (some centres unmarked) [Compound I-031] | > 1800 | 3.8 |
| Cn1cc2c(C(=O)N[C@H]3CC[C@H](CCN4CC5CC5(c5cc(C(F)F)on5)C4)CC3)cccc2n1 (some centres unmarked) [Compound I-032] | 200 | 0.4 |
| CC(F)c1cc(C23CC2CN(CC[C@H]2CC[C@H](NC(=O)c4cccc5nn(C)cc45)CC2)C3)no1 (some centres unmarked) [Compound I-033] |  | 0.77 |
| Cn1cc2c(C(=O)NN3CCC(CCN4C[C@@H]5C[C@]5(c5cc(C(C)(F)F)on5)C4)CC3)cccc2n1 [Compound I-035] | 870 | 0.24 |
| Cc1ncccc1C(=O)N[C@H]1CC[C@H](CCN2C[C@@H]3C[C@]3(c3cc(C(C)(F)F)on3)C2)CC1 [Compound I-036] | 190 | 0.25 |
| CCc1cc([C@]23C[C@H]2CN(CC[C@H]2CC[C@H](NC(=O)c4cccc5nn(C)cc45)CC2)C3)no1 [Compound I-037] | 290 | 0.7 |
| CCn1c(C(=O)N[C@H]2CC[C@H](CCN3C[C@@H]4C[C@]4(c4cc(C(C)(F)F)on4)C3)CC2)cccc1=O [Compound I-038] | 91 | 0.073 |
| Cn1ncc(CC(=O)N[C@H]2CC[C@H](CCN3C[C@@H]4C[C@]4(c4cc(C(C)(F)F)on4)C3)CC2)n1 [Compound I-039] | 300 | 0.39 |
